Test system: 743489-274-T-PDC complex spheroid growth
Test: Anticancer human tumor 743489-274-T-PDC patient-derived renal cell carcinoma cell line growth inhibition [AhR]
Settings: for IC50: curve of first compound; for viability, T/C: stronger effect = lower value
How it was run: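 Agents were dosed in half-log steps down from roughly clinical Cmax, or from 10 microM where Cmax was unknown, alone and with AhR antagonists. Read-out: percent test/control growth of tumor spheroids containing HUVEC and MSC stromal cells.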

[1] = second compound 0.1 µM, first compound 0.0316 µM
[2] = second compound 0.1 µM, first compound 0.1 µM
[3] = second compound 0.1 µM, first compound 0.316 µM
[4] = second compound 0.1 µM, first compound 1 µM
[5] = second compound 0.1 µM, first compound 3.16 µM
[6] = second compound 0.1 µM, first compound 10 µM
[7] = second compound 0.316 µM, first compound 0.0316 µM
[8] = second compound 0.316 µM, first compound 0.1 µM
[9] = second compound 0.316 µM, first compound 0.316 µM
[10] = second compound 0.316 µM, first compound 1 µM
[11] = second compound 0.316 µM, first compound 3.16 µM
[12] = second compound 0.316 µM, first compound 10 µM
[13] = second compound 1 µM, first compound 0.0316 µM
[14] = second compound 1 µM, first compound 0.1 µM
[15] = second compound 1 µM, first compound 0.316 µM
[16] = second compound 1 µM, first compound 1 µM
[17] = second compound 1 µM, first compound 3.16 µM
[18] = second compound 1 µM, first compound 10 µM
[19] = second compound 3.16 µM, first compound 0.0316 µM
[20] = second compound 3.16 µM, first compound 0.1 µM
[21] = second compound 3.16 µM, first compound 0.316 µM
[22] = second compound 3.16 µM, first compound 1 µM
[23] = second compound 3.16 µM, first compound 3.16 µM
[24] = second compound 3.16 µM, first compound 10 µM
[25] = second compound 10 µM, first compound 0.0316 µM
[26] = second compound 10 µM, first compound 0.1 µM
[27] = second compound 10 µM, first compound 0.316 µM
[28] = second compound 10 µM, first compound 1 µM
[29] = second compound 10 µM, first compound 3.16 µM
[30] = second compound 10 µM, first compound 10 µM
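Also: spheroids exposed to agents for 7 days before readout.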
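For viability, T/C in this document: 100% = DMSO vehicle control wells.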

CC(C)c1c(-c2ccccc2)nc2c(C#N)c[nH]n2c1=O + Cc1ccccc1N=Nc1ccc(NC(=O)c2ccnn2C)c(C)c1
IC50 (second compound 0.1 µM): > 10 µM | IC50 (second compound 0.316 µM): > 10 µM | IC50 (second compound 1 µM): > 10 µM | IC50 (second compound 3.16 µM): > 10 µM | IC50 (second compound 10 µM): > 10 µM | viability, T/C [1]: 102% | viability, T/C [2]: 103% | viability, T/C [3]: 93.3% | viability, T/C [4]: 96% | viability, T/C [5]: 109% | viability, T/C [6]: 99.4% | viability, T/C [7]: 102% | viability, T/C [8]: 102% | viability, T/C [9]: 101% | viability, T/C [10]: 94.1% | viability, T/C [11]: 100% | viability, T/C [12]: 91.3% | viability, T/C [13]: 111% | viability, T/C [14]: 93.8% | viability, T/C [15]: 108% | viability, T/C [16]: 109% | viability, T/C [17]: 95.7% | viability, T/C [18]: 96.2% | viability, T/C [19]: 94.3% | viability, T/C [20]: 98.1% | viability, T/C [21]: 94.5% | viability, T/C [22]: 103% | viability, T/C [23]: 104% | viability, T/C [24]: 90.4% | viability, T/C [25]: 92.2% | viability, T/C [26]: 99.2% | viability, T/C [27]: 104% | viability, T/C [28]: 93.2% | viability, T/C [29]: 85.8% | viability, T/C [30]: 86.9%

CC1COCCN1c1cc(-c2ccnn2C)c2ccnc(-c3ccn[nH]3)c2n1 (stereo not given) + Cc1ccccc1N=Nc1ccc(NC(=O)c2ccnn2C)c(C)c1
IC50 (second compound 0.1 µM): > 1 µM | IC50 (second compound 0.316 µM): > 1 µM | IC50 (second compound 1 µM): > 1 µM | IC50 (second compound 3.16 µM): > 1 µM | IC50 (second compound 10 µM): > 1 µM | viability, T/C (second compound 0.1 µM, first compound 0.00316 µM): 92.8% | viability, T/C (second compound 0.1 µM, first compound 0.01 µM): 94.4% | viability, T/C [1]: 93.9% | viability, T/C [2]: 95.9% | viability, T/C [3]: 88.5% | viability, T/C [4]: 78.4% | viability, T/C (second compound 0.316 µM, first compound 0.00316 µM): 89.7% | viability, T/C (second compound 0.316 µM, first compound 0.01 µM): 101% | viability, T/C [7]: 89.6% | viability, T/C [8]: 93.3% | viability, T/C [9]: 99.2% | viability, T/C [10]: 75.3% | viability, T/C (second compound 1 µM, first compound 0.00316 µM): 93.4% | viability, T/C (second compound 1 µM, first compound 0.01 µM): 98.5% | viability, T/C [13]: 92% | viability, T/C [14]: 86.5% | viability, T/C [15]: 88.2% | viability, T/C [16]: 68.1% | viability, T/C (second compound 3.16 µM, first compound 0.00316 µM): 87.6% | viability, T/C (second compound 3.16 µM, first compound 0.01 µM): 86.8% | viability, T/C [19]: 88% | viability, T/C [20]: 82.8% | viability, T/C [21]: 76.4% | viability, T/C [22]: 76.3% | viability, T/C (second compound 10 µM, first compound 0.00316 µM): 103% | viability, T/C (second compound 10 µM, first compound 0.01 µM): 94.9% | viability, T/C [25]: 96.2% | viability, T/C [26]: 84.9% | viability, T/C [27]: 73.5% | viability, T/C [28]: 58.6%

CC1COCCN1c1cc(C2(S(C)(=N)=O)CC2)nc(-c2ccnc3[nH]ccc23)n1 (stereo not given) + Cc1ccccc1N=Nc1ccc(NC(=O)c2ccnn2C)c(C)c1
IC50 (second compound 0.1 µM): > 10 µM | IC50 (second compound 0.316 µM): > 10 µM | IC50 (second compound 1 µM): > 10 µM | IC50 (second compound 3.16 µM): > 10 µM | IC50 (second compound 10 µM): > 10 µM | viability, T/C [1]: 92.1% | viability, T/C [2]: 101% | viability, T/C [3]: 92.2% | viability, T/C [4]: 97.3% | viability, T/C [5]: 98.8% | viability, T/C [6]: 102% | viability, T/C [7]: 99% | viability, T/C [8]: 87.6% | viability, T/C [9]: 109% | viability, T/C [10]: 88.4% | viability, T/C [11]: 86.8% | viability, T/C [12]: 99.1% | viability, T/C [13]: 104% | viability, T/C [14]: 99.4% | viability, T/C [15]: 95.8% | viability, T/C [16]: 88% | viability, T/C [17]: 88.4% | viability, T/C [18]: 81.5% | viability, T/C [19]: 86.8% | viability, T/C [20]: 85.7% | viability, T/C [21]: 95.5% | viability, T/C [22]: 78.6% | viability, T/C [23]: 83.2% | viability, T/C [24]: 80.4% | viability, T/C [25]: 85.4% | viability, T/C [26]: 89.1% | viability, T/C [27]: 87.4% | viability, T/C [28]: 84.8% | viability, T/C [29]: 78.4% | viability, T/C [30]: 75%

COc1ccc([C@@H](O)c2cc(-c3ncnc4cc(N5CCOCC5)ccc34)c(F)cc2Cl)nn1 + Cc1ccccc1N=Nc1ccc(NC(=O)c2ccnn2C)c(C)c1
IC50 (second compound 0.1 µM): 2.61 µM | IC50 (second compound 0.316 µM): 2.57 µM | IC50 (second compound 1 µM): 2.34 µM | IC50 (second compound 3.16 µM): 2.26 µM | IC50 (second compound 10 µM): 1.72 µM | viability, T/C [1]: 99.7% | viability, T/C [2]: 87.6% | viability, T/C [3]: 95.7% | viability, T/C [4]: 80.1% | viability, T/C [5]: 44.1% | viability, T/C [6]: 31.9% | viability, T/C [7]: 96.2% | viability, T/C [8]: 89.1% | viability, T/C [9]: 92.4% | viability, T/C [10]: 77.2% | viability, T/C [11]: 44.1% | viability, T/C [12]: 22.4% | viability, T/C [13]: 101% | viability, T/C [14]: 87% | viability, T/C [15]: 86.5% | viability, T/C [16]: 68.9% | viability, T/C [17]: 42.2% | viability, T/C [18]: 22.8% | viability, T/C [19]: 84.5% | viability, T/C [20]: 81.5% | viability, T/C [21]: 87.5% | viability, T/C [22]: 77.7% | viability, T/C [23]: 38.4% | viability, T/C [24]: 19.1% | viability, T/C [25]: 86.2% | viability, T/C [26]: 90.2% | viability, T/C [27]: 81.5% | viability, T/C [28]: 62.2% | viability, T/C [29]: 36.1% | viability, T/C [30]: 18.8%

O=C(C=Cn1cnc(-c2cc(C(F)(F)F)cc(C(F)(F)F)c2)n1)NNc1cnccn1 + Cc1ccccc1N=Nc1ccc(NC(=O)c2ccnn2C)c(C)c1
IC50 (second compound 0.1 µM): > 3 µM | IC50 (second compound 0.316 µM): > 3 µM | IC50 (second compound 1 µM): > 3 µM | IC50 (second compound 3.16 µM): > 3 µM | IC50 (second compound 10 µM): > 3 µM | viability, T/C (second compound 0.1 µM, first compound 0.00949 µM): 106% | viability, T/C (second compound 0.1 µM, first compound 0.03 µM): 110% | viability, T/C (second compound 0.1 µM, first compound 0.0949 µM): 118% | viability, T/C (second compound 0.1 µM, first compound 0.3 µM): 140% | viability, T/C (second compound 0.1 µM, first compound 0.949 µM): 121% | viability, T/C (second compound 0.1 µM, first compound 3 µM): 104% | viability, T/C (second compound 0.316 µM, first compound 0.00949 µM): 105% | viability, T/C (second compound 0.316 µM, first compound 0.03 µM): 102% | viability, T/C (second compound 0.316 µM, first compound 0.0949 µM): 115% | viability, T/C (second compound 0.316 µM, first compound 0.3 µM): 133% | viability, T/C (second compound 0.316 µM, first compound 0.949 µM): 103% | viability, T/C (second compound 0.316 µM, first compound 3 µM): 94% | viability, T/C (second compound 1 µM, first compound 0.00949 µM): 97.8% | viability, T/C (second compound 1 µM, first compound 0.03 µM): 107% | viability, T/C (second compound 1 µM, first compound 0.0949 µM): 128% | viability, T/C (second compound 1 µM, first compound 0.3 µM): 140% | viability, T/C (second compound 1 µM, first compound 0.949 µM): 110% | viability, T/C (second compound 1 µM, first compound 3 µM): 97.1% | viability, T/C (second compound 3.16 µM, first compound 0.00949 µM): 102% | viability, T/C (second compound 3.16 µM, first compound 0.03 µM): 97.7% | viability, T/C (second compound 3.16 µM, first compound 0.0949 µM): 109% | viability, T/C (second compound 3.16 µM, first compound 0.3 µM): 127% | viability, T/C (second compound 3.16 µM, first compound 0.949 µM): 95.4% | viability, T/C (second compound 3.16 µM, first compound 3 µM): 82.5% | viability, T/C (second compound 10 µM, first compound 0.00949 µM): 90.8% | viability, T/C (second compound 10 µM, first compound 0.03 µM): 85.8% | viability, T/C (second compound 10 µM, first compound 0.0949 µM): 99.7% | viability, T/C (second compound 10 µM, first compound 0.3 µM): 128% | viability, T/C (second compound 10 µM, first compound 0.949 µM): 101% | viability, T/C (second compound 10 µM, first compound 3 µM): 79.2%
